{"source": "ChEMBL document CHEMBL1208759", "about": "“A newly synthesized, potent tyrosinase inhibitor: 5-(6-hydroxy-2-naphthyl)-1,2,3-benzenetriol” (Bioorg Med Chem Lett, 2010)", "key": {"[1]": {"biological_target": "T1, Tyrosinase (Agaricus bisporus) (UniProt O42713)", "T1 sequence (whole entry)": "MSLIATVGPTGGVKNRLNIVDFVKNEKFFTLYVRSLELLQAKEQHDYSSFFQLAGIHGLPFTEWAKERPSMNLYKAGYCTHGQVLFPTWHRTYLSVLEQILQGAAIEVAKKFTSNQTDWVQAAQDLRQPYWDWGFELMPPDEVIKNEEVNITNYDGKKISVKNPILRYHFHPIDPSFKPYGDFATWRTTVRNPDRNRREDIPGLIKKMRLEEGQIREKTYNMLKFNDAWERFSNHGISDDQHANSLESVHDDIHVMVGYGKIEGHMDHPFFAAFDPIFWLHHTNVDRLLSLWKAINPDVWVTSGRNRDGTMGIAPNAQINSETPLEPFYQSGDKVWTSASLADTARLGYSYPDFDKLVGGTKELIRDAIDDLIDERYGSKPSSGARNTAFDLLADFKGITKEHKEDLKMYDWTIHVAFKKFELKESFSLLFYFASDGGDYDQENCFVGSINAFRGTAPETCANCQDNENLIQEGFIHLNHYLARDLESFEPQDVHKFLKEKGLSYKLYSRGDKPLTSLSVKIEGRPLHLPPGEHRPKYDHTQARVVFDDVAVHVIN", "conditions": "5 uM", "description": "Inhibition of mushroom tyrosinase at 5 uM"}, "[2]": {"biological_target": "T2, Tyrosinase (Mus musculus) (UniProt P11344)", "T2 sequence (whole entry)": "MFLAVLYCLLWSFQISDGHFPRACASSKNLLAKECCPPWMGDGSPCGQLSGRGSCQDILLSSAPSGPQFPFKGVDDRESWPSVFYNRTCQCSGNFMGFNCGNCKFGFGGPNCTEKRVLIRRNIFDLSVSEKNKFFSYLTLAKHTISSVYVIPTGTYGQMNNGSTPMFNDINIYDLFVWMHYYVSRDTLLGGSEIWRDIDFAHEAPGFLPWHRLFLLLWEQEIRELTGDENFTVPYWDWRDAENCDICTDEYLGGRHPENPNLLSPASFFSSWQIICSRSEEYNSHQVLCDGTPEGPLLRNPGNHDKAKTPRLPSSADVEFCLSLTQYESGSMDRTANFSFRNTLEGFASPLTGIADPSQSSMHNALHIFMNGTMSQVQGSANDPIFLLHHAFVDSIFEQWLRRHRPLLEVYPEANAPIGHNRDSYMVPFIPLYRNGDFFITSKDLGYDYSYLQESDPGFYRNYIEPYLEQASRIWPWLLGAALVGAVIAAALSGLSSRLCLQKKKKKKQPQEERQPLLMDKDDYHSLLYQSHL", "assay": "Inhibition of tyrosinase activity in mouse B16 cells at 100 uM", "format": "cell-based"}, "[3]": {"biological_target": "T2, Tyrosinase (Mus musculus)", "assay": "Inhibition of tyrosinase activity in mouse B16 cells at 400 uM", "format": "cell-based"}, "[4]": {"biological_target": "T1, Tyrosinase (Agaricus bisporus)", "conditions": "1 uM", "description": "Inhibition of mushroom tyrosinase at 1 uM"}, "B16 [5]": {"test_system": "B16", "assay": "Antimelanogenic activity in mouse B16 cells assessed as inhibition of melanin content at 100 uM relative to alpha-MSH", "format": "functional"}, "[6]": {"biological_target": "T1, Tyrosinase (Agaricus bisporus)", "conditions": "0.5 uM", "description": "Inhibition of mushroom tyrosinase at 0.5 uM"}, "B16 [7]": {"test_system": "B16", "assay": "Antimelanogenic activity in mouse B16 cells assessed as inhibition of melanin content at 400 uM relative to alpha-MSH", "format": "functional"}, "[8]": {"assay": "Cytotoxicity against mouse B16 cells assessed as cell viability at 100 uM after 24 hrs by MTT assay", "format": "cell-based", "conditions": "read-out: Activity"}, "[9]": {"biological_target": "T2, Tyrosinase (Mus musculus)", "assay": "Inhibition of tyrosinase activity in mouse B16 cells at 25 uM", "format": "cell-based"}, "[10]": {"biological_target": "T1, Tyrosinase (Agaricus bisporus)", "conditions": "2.5 uM", "description": "Inhibition of mushroom tyrosinase at 2.5 uM"}, "B16 [11]": {"test_system": "B16", "assay": "Antimelanogenic activity in mouse B16 cells assessed as inhibition of melanin content at 25 uM relative to alpha-MSH", "format": "functional"}, "[12]": {"assay": "Cytotoxicity against mouse B16 cells assessed as cell viability at 50 uM after 24 hrs by MTT assay", "format": "cell-based", "conditions": "read-out: Activity"}, "[13]": {"assay": "Cytotoxicity against mouse B16 cells assessed as cell viability at 25 uM after 24 hrs by MTT assay", "format": "cell-based", "conditions": "read-out: Activity"}}}
{"smiles": "Oc1ccc2cc(-c3cc(O)c(O)c(O)c3)ccc2c1", "values": [{"measurement": "inhibition", "setting": "[1]", "value": 86.1, "unit": "%"}, {"measurement": "inhibition", "setting": "[2]", "value": 14.1, "unit": "%"}, {"measurement": "inhibition", "setting": "[3]", "value": 2.05, "unit": "%"}, {"measurement": "inhibition", "setting": "[4]", "value": 18.7, "unit": "%"}, {"measurement": "inhibition at 100 µM", "setting": "B16 [5]", "value": 45.8, "unit": "%"}, {"measurement": "inhibition", "setting": "[6]", "value": 7.53, "unit": "%"}, {"measurement": "inhibition at 400 µM", "setting": "B16 [7]", "value": 34.7, "unit": "%"}, {"measurement": "viability at 24 h, 100 µM", "setting": "[8]", "value": 95.1, "unit": "%"}, {"measurement": "inhibition", "setting": "[9]", "value": 26.2, "unit": "%"}, {"measurement": "inhibition", "setting": "[10]", "value": 39.4, "unit": "%"}, {"measurement": "inhibition at 25 µM", "setting": "B16 [11]", "value": 50.7, "unit": "%"}, {"measurement": "viability at 24 h, 50 µM", "setting": "[12]", "value": 98.1, "unit": "%"}, {"measurement": "viability at 24 h, 25 µM", "setting": "[13]", "value": 98.3, "unit": "%"}]}
